# Laboratory results as given in paper PMC7247683, “Molecular Drug Discovery of Single Ginsenoside Compounds as a Potent Bruton’s Tyrosine Kinase Inhibitor” (International Journal of Molecular Sciences, 2020).
# Like-named read-outs stand apart in the source and are kept apart here.
# Experiments:
# BTK [1] = target: T1, BTK (Homo sapiens, UniProt Q06187); assay: Western blotting, p-BTK/BTK in Ramos cells; type: cell-based; conditions: α-IgM stimulated, stimulation (α-IgM antibody (+), DMSO) group as reference (100%)
# T1 construct: host or cells: Ramos cells
# T1 sequence (Q06187 whole entry): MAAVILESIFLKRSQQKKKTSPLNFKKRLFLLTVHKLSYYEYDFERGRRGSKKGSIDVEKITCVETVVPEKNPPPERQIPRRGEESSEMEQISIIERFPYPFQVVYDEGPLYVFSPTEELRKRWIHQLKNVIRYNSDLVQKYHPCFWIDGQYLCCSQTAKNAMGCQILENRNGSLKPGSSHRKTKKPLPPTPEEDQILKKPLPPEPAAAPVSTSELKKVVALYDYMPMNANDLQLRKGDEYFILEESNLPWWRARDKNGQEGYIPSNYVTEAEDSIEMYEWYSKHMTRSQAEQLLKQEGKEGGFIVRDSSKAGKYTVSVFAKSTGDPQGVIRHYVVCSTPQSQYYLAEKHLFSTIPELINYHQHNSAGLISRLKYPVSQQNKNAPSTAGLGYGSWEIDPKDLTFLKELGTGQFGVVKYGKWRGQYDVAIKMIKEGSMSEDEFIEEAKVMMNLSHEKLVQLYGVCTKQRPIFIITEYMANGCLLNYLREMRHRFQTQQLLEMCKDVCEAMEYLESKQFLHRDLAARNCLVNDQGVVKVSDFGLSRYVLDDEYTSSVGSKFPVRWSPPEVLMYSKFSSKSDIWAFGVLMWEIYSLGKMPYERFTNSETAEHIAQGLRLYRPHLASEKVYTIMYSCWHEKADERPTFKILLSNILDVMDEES
# Description: The Ramos cells (~3 × 10^6) were famished of serum for 1 h and treated with ginsenosides for 1 h, and then washed with phosphate-buffered saline (Welgene, Korea), followed by stimulation with 1 μg/mL of goat F(ab’)2 anti-human IgM (Southern Biotech, Birmingham, AL, USA) for 10 min on ice. The cells were then lysed in a radioimmunoprecipitation assay (RIPA) buffer (Sigma-Aldrich, St. Louis, MO, USA) and the proteins were separated by SDS-PAGE (Bio-Rad Laboratories, Hercules, CA, USA) and transferred to polyvinylidene fluoride membranes (EMD Millipore, Billerica, MA, USA). The proteins were detected with anti-BTK Y223 (Cell Signaling Technology, Danvers, MA, USA), anti-BTK (53/BTK, Cell Signaling Technology) and anti-glyceraldehyde 3-phosphate dehydrogenase (anti-GAPDH) (Santa Cruz Biotechnology, Santa Cruz, CA, USA) antibodies. The protein signals were monitored by chemiluminescence using Enhanced ChemiLuminescence (ECL) western blotting detection reagent (EMD Millipore), and the scanned blots were quantified using a Multi-Image analyzer (Fujifilm, Japan). The phosphorylation % of each lane was determined using Multi-Gauge software (Fujifilm). The IC50 value was measured using control α-IgM+ set at 100% and control α-IgM− set at 0%.
# The Ramos cells (~3 × 10^6) were cultured in 6-well cell culture plates. Both the control and ginsenoside compounds were dissolved in DMSO. For the Western blotting, the α-IgM- groups and α-IgM+ groups in the presence of DMSO were used as the non-stimulation control and stimulation control, respectively, following by the quantitation of the expression ratio of p-BTK, BTK, and β-tubulin. The expression level of each p-BTK and the expression level of BTK were compared and analyzed using the ratios (p-BTK/β-tubulin and BTK/β-tubulin) based on the expression level of each β-tubulin. Namely, the p-BTK/BTK ratio means the (p-BTK/β-tubulin)/(BTK/β-tubulin) ratio, which is simply expressed as p-BTK/BTK.
# BTK [2] = target: T1, BTK; assay: Cell-based phosphorylation ELISA, p-BTK/BTK in Ramos cells; conditions: for BTK inhibitory activity (p-BTK/BTK, ELISA), in words: compared to Ibrutinib or the DMSO-treated group
# Excerpt: Although BTK is almost constant in cells, the expression level of p-BTK varies depending on the degree of BTK activation and inhibition, and thus the expression level of p-BTK is based on the expression of BTK (p-BTK/BTK).
# When BTK is activated or inhibited, the phosphorylation % of BTK is increased or decreased accordingly, which can be confirmed by the amount of phosphorylated BTK in the cell. After treating the ginsenoside compound on the cells, the amount of BTK inhibition of the ginsenoside compound was compared and analyzed by the amount of phosphorylated BTK in the cell. […] The BTK to GAPDH expression ratio was confirmed.
# The Ramos cells (~1 × 10^4) were cultured in 96-well cell culture plates. […] Free DMSO was used as a negative control group. […] The expression level of each p-BTK and the expression level of BTK were compared and analyzed using the ratios (p-BTK/GAPDH and BTK/GAPDH) based on the expression level of each […]. Namely, the p-BTK/BTK ratio means the (p-BTK/GAPDH)/(BTK/GAPDH) ratio, which is simply expressed as p-BTK/BTK.
# [3] = Solubility characterization in RPMI medium (absorbance at 540 nm, transparency); type: physicochemical; set-up: key to absorbance at 540 nm increased compared to the control / absorbance at 540 nm decreased compared to the control / absorbance at 540 nm reduced compared to the control: difference in OD at 540 nm vs untreated medium control
# Excerpt: In spite of the promising pharmaceutical efficacies of the ginsenoside compounds, the therapeutic potential of ginsenosides is largely restricted by their lowering bioavailability when orally distributed (< 5%) due to their undesirable physicochemical properties, such as low water solubility, low biomembrane permeability, instability in the gastrointestinal fluid, and extensive body metabolism. Depending on the solubility of each candidate substance, the black text under the plate is clearly visible when dissolved well. Since UV/vis absorbance spectra-based turbidimetry has the advantage of being fast and non-destructive in common drug solubility tests, a determination of their turbidity or optical density (OD) in liquid cultures was employed to monitor the water-solubility of the ginsenoside candidates. The λmax of the UV/vis absorbance spectra of the ginsenoside compounds and their Roswell Park Memorial Institute (RPMI) medium were identical at 540 nm, and the difference in OD between the absorbances of the ginsenosides and the media, used only as a control, was plotted (Figure 4). The increased absorbance signals of the PPT and PPD were derived from the increased OD signal of turbidity-based interference by insoluble compounds in the medium. The corresponding UV/vis absorbance results of each candidate substance in the media is discussed as follows:
# To determine the concentration of ginsenoside compounds to be treated on the cells, the solubility of each compound in RPMI-1640 medium was evaluated. Specifically, the solubility of each ginsenoside compound was observed by UV/vis absorbance at 540 nm, and the transparency of the medium was measured by the visually observed degree to which the marked black text at the bottom of the plate was visible (transparency of the medium). In addition, the change in absorbance at 540 nm compared to the control was measured by using the medium not treated with the ginsenoside compound as a control.
# purified BTK = purified BTK (Homo sapiens, UniProt Q06187); assay: FRET-based kinase assay (Z'-LYTE) for BTK inhibition; type: biochemical; conditions: 0.625 μg/mL purified BTK; for BTK inhibitory effect (inhibition %): 25, 50, and 100 μg/mL, depending on the concentration; for IC50: FRET assay
# purified BTK, sequence (Q06187 whole entry): as above
# Description: For the identification of the BTK inhibitory activity of ginsenoside-derived candidate substances and the screening of them to show pharmacological efficacy, the BTK-inhibitory activity of ginsenoside compounds and their in vitro BTK inhibitory activity was measured as the inhibition rate (inhibition %) of the decreased phosphorylation rate compared to the BTK activity without ginsenoside treatment in a FRET assay.
# In order to evaluate the BTK inhibitory activity of the ginsenoside compound, a kinase assay using a Z’-LYTE Kinase Assay Kit from Thermo Fisher Scientific was performed. A fluorescent microplate reader was used to measure the Fluorescence Resonance Energy Transfer (FRET) between coumarin and fluorescein dyes. The assay was optimized for BTK, as described in the manufacturer’s protocol. The BTK activity (%) was evaluated by measuring the ratio of the emission signal (445 nm/520 nm) according to the phosphorylation % of the substrate by BTK.
# [4] = solubility-dependent concentration
# [5] = read-out: IC50 levels that inhibited BTK activity
Compound,"BTK inhibitory activity (p-BTK/BTK, Western blotting) (BTK [1])","BTK inhibitory activity (p-BTK/BTK, ELISA) (BTK [2]; [4])","BTK inhibitory activity (p-BTK/BTK, ELISA), in words (BTK [2]; [4])","solubility in the medium, overall ([3]; RPMI medium)",BTK inhibitory effect (inhibition %) (purified BTK),IC50 (purified BTK; [5]),"BTK inhibitory activity (p-BTK/BTK, ELISA) (BTK [2]; at low concentrations)",appearance / solubility in the medium [3],"solubility in the medium, overall [3]",absorbance at 540 nm increased compared to the control ([3]; 0.5 mM),other results
CC(C)=CCCC(C)(OC1OC(COC2OCC(O)C(O)C2O)C(O)C(O)C1O)C1CCC2(C)C1C(O)CC1C3(C)CCC(OC4OC(CO)C(O)C(O)C4OC4OC(CO)C(O)C(O)C4O)C(C)(C)C3CCC12C (stereo not drawn) [Rb2],~ 17%,> 23%,substantial BTK inhibitory activity,soluble in the medium at a high concentration,≥ 70%,9.27 µM,–,–,–,–,absorbance at 540 nm increased compared to the control ([3]; 0.2 mM in RPMI medium): 0.042; appearance / solubility in the medium ([3]; 0.2 mM in RPMI medium): transparent; absorbance at 540 nm decreased compared to the control ([3]; 0.6 mM in RPMI medium): 0.007; absorbance at 540 nm decreased compared to the control ([3]; 1.0 mM in RPMI medium): 0.006
"CC(C)=CCCC(C)(O)C1CCC2(C)C1C(O)CC1C3(C)CCC(O)C(C)(C)C3CCC12C (stereo not drawn) [PPD, protopanaxadiol]",about 40%,–,substantial BTK inhibitory activity,–,–,–,9.58%,turbid,poorly soluble in the medium at higher concentrations,0.442,absorbance at 540 nm increased compared to the control ([3]; 0.2 mM): 0.155; absorbance at 540 nm increased compared to the control ([3]; 1 mM): 0.835; absorbance at 540 nm increased compared to the control ([3]; 1.5 mM): 1.153
CC(C)=CCCC(C)(O)C1CCC2(C)C1C(O)CC1C3(C)CCC(OC4OC(CO)C(O)C(O)C4O)C(C)(C)C3CCC12C (stereo not drawn) [Rh2],–,–,–,"soluble in the medium at a low concentration, while insoluble at a high concentration",≥ 70%,–,–,–,–,–,absorbance at 540 nm increased compared to the control ([3]; 0.4 mM in RPMI medium): 0.037; absorbance at 540 nm increased compared to the control ([3]; 0.6 mM in RPMI medium): 0.111; absorbance at 540 nm increased compared to the control ([3]; 1.2 mM in RPMI medium): 0.271; appearance / solubility in the medium ([3]; 1.2 mM in RPMI medium): slightly soluble; IC50 (purified BTK; IC50 levels that inhibited BTK activity): 61.1 µM
"CC(C)=CCC[C@](C)(O)[C@H]1CC[C@]2(C)[C@@H]1[C@H](O)C[C@@H]1[C@@]3(C)CC[C@H](O)C(C)(C)[C@@H]3[C@@H](O)C[C@]12C [PPT, protopanaxatriol]",about 30%,–,substantial BTK inhibitory activity,–,≥ 70%,136 µM,15.98%,intensively turbid,poorly soluble in the medium at higher concentrations,0.309,absorbance at 540 nm increased compared to the control ([3]; 0.8 mM): 0.508; absorbance at 540 nm increased compared to the control ([3]; 1.7 mM): 1.118
CC(C)=CCCC(C)(OC1OC(COC2OCC(O)C(O)C2O)C(O)C(O)C1O)C1CCC2(C)C1C(O)CC1C3(C)CCC(OC4OC(CO)C(O)C(O)C4OC4OC(CO)C(O)C(O)C4O)C(C)(C)C3CCC12C (stereo not drawn) [Rb3],~ 17%,> 23%,substantial BTK inhibitory activity,soluble in the medium at a high concentration,≥ 70%,51 µM,–,–,–,–,absorbance at 540 nm increased compared to the control ([3]; 0.9 mM in RPMI medium): 0.047; appearance / solubility in the medium ([3]; 0.9 mM in RPMI medium): transparent; absorbance at 540 nm reduced compared to the control ([3]; 2.7 mM in RPMI medium): 0.004
